Assay results taken from PubChem BioAssay (NCI).
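Compound exposure: 48 hours, 5 concentrations, 96-well plates. Definition used: TGI = concentration required for complete inhibition of growth.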

What was measured:
Assay in all cases: NCI tumour cell line growth inhibition, 48 h
[1] = tested on: IGROV1 ovarian
[2] = tested on: HCT-15 colon
[3] = tested on: LOX IMVI melanoma
[4] = tested on: M14 melanoma
[5] = tested on: HS 578T breast
[6] = tested on: OVCAR-5 ovarian
[7] = tested on: HCC-2998 colon
[8] = tested on: COLO 205 colon
[9] = tested on: SK-MEL-2 melanoma
[10] = tested on: A549 NSCLC
[11] = tested on: HT29 colon
[12] = tested on: OVCAR-4 ovarian
[13] = tested on: SF-268 CNS
[14] = tested on: SNB-75 CNS
[15] = tested on: HOP-62 NSCLC
[16] = tested on: RXF 393 renal
[17] = tested on: CCRF-CEM leukemia
[18] = tested on: NCI/ADR-RES ovarian

| SMILES | TGI [1] | TGI [2] | TGI [3] | TGI [4] | TGI [5] | TGI [6] | TGI [7] | TGI [8] | TGI [9] | TGI [10] | TGI [11] | TGI [12] | TGI [13] | TGI [14] | TGI [15] | TGI [16] | TGI [17] | TGI [18] |
| --- | --- | --- | --- | --- | --- | --- | --- | --- | --- | --- | --- | --- | --- | --- | --- | --- | --- | --- |
| Cc1[nH]n(C(=N)N)c(=O)c1CCO | > 100 µM | > 100 µM | > 100 µM | > 100 µM | > 100 µM | > 100 µM | > 100 µM | > 100 µM | > 100 µM | > 100 µM | > 100 µM | > 100 µM | > 100 µM | > 100 µM | > 100 µM | > 100 µM | > 100 µM | 8.93 µM |
| COc1cccc(C2ON=C(c3ccccc3)N2C23CC4CC(CC(C4)C2)C3)c1 (centres undefined) | > 10 µM | > 10 µM | > 10 µM | > 10 µM | > 10 µM | > 10 µM | > 10 µM | > 10 µM | > 10 µM | > 10 µM | > 10 µM | > 10 µM | > 10 µM | > 10 µM | > 10 µM | > 10 µM | > 10 µM | > 10 µM |
| CN(C)c1ccc(-c2c(C#N)c(O)n(NS(=O)(=O)c3ccccc3)c(=O)c2C#N)cc1 | > 100 µM | > 100 µM | > 100 µM | > 100 µM | > 100 µM | > 100 µM | > 100 µM | > 100 µM | > 100 µM | > 100 µM | > 100 µM | > 100 µM | > 100 µM | > 100 µM | > 100 µM | > 100 µM | > 100 µM | > 100 µM |
